Laboratory results from patent US20070275382A1, “Biomarkers for the Efficacy of Somatostatin Analogue Treatment” (priority 2003, published 2007).
Where “and” joins values, the source holds several entries; their conditions need not be identical. Equal entries are not always repeated. *1 amine or outer side, *2 acyl side, *3 side chain or, on linkers, in order; H or OH if unused. Where a SMILES comes first, the peptide text is derived from it. Side-chain parts run from the residue outwards. [ ]: non-standard residue; d: D form. The star is where a group is joined. Ethylenediamine = C(CN[*:2])N[*:1]; Hyp = O=C(O)[CH]1C[CH](O)CN1; Phg = N[CH](C(=O)O)c1ccccc1; CO = O=C([*:1])[*:2]; Bn = c1ccc(C*)cc1

System: Pituitary gland
Experiment: Microarray gene expression profiling (HG-U95A), pituitary
Assay type: in vivo, cynomolgus monkeys
Description: Origin of tissue and processing. Male and female cynomolgus monkeys received subcutaneously pasireotide (100 μg/animal/day) or the vehicle for 14 days. On day 15, all animals were sacrificed and tissues for RNA extraction were immediately snap-frozen and kept at −80° C. until processing.
RNA expression profiling was conducted by means of the HG-U95A gene expression probe array (Affymetrix; Santa Clara, Calif. USA), containing more than 12,600 probe sets interrogating primarily full-length human genes and also some control probe sets. The experiment was conducted according to the recommendations of the manufacturer. Briefly, total RNA was obtained by acid guanidinium thiocyanate-phenol-chloroform extraction (Trizol®, Invitrogen Life Technologies, San Diego, Calif. USA) from each frozen tissue section. The total RNA was then purified on an affinity resin (Rneasy®, Qiagen) and quantified. Double stranded cDNA was synthesized with a starting amount of approximately 5 μg full-length total RNA using the Superscript® Choice System (Invitrogen Life Technologies, Carlsbad, Calif. USA) in the presence of a T7-(dT)24 DNA oligonucleotide primer. Following synthesis, the cDNA was purified by phenol/chloroform/isoamyl alcohol extraction and ethanol precipitation. The purified cDNA was then transcribed in vitro using the BioArray® High Yield RNA Transcript Labeling Kit (ENZO, Farmingdale, N.Y. USA) in the presence of biotinylated ribonucleotides form biotin labelled cRNA. The labelled cRNA was then purified on an affinity resin (Rneasy®, Qiagen), quantified and fragmented. An amount of approximately 10 μg labelled cRNA was hybridized for 16 hours at 45° C. to an expression probe array. The array was then washed and stained twice with streptavidin-phycoerythrin (Molecular Probes,) using the GeneChip® Fluidics Workstation 400 (Affymetrix, Santa Clara, Calif. USA). The array was then scanned twice using a confocal laser scanner (GeneArray® Scanner, Agilent, Palo Alto, Calif. USA) resulting in one scanned image. This resulting “.dat-file” was processed using the MAS4 program (Affymetrix) into a “.cel-file”. The “.cel file” was captured and loaded into the Affymetrix GeneChip® Laboratory Information Management System (LIMS). The LIMS database is connected to a UNIX Sun Solaris server through a network filing system that allows for the average intensities for all probes cells (CEL file) to be downloaded into an Oracle database (NPGN). Raw data was converted to expression levels using a “target intensity” of 150. The data were evaluated for quality control and loaded in the GeneSpring® software 4.2.4 (Silicon Genetics, Calif. USA) for analysis.
On the human Affymetrix HGU95Av2 chip, probe sets for individual genes contain 20 oligonucleotide pairs, each composed of a “perfect match” 25-mer and a “mismatch” 25-mer differing from the “perfect” match oligonucleotide at a single base. After probe labelling, hybridization, and laser scanning, the expression level was estimated by averaging the differences in signal intensity measured by oligonucleotide pairs of a given probe (AvgDiff value). The fold changes and directions were calculated for selected genes, from the differences of the AvgDiff values between controls and treated.
To identify genes that were impacted by pasireotide, the dataset was initially filtered to exclude in a first wave of analysis, genes whose values were systematically in the lower expression ranges where the experimental noise is high (at least 80 in a number of experiments corresponding to the smallest number of replicas of any experimental point). In a second round of selection a threshold p-value of 0.05 (based on a t-test) identified differences between treated and control based on a two component error model (Global Error Model) and, whenever possible, with a stepdown correction for multi-hypothesis testing (Benjamini and Hochberg false discovery rate). […]

[1] = ↑ vs control, 100 μg/animal/day s.c., 14 days

NCCCCC1NC(=O)C(Cc2c[nH]c3ccccc23)NC(=O)C(c2ccccc2)NC(=O)C2CC(OC(=O)NCCN)CN2C(=O)C(Cc2ccccc2)NC(=O)C(Cc2ccc(OCc3ccccc3)cc2)NC1=O (stereo not drawn) [Pasireotide, cyclo[4-(NH2—C2H4—NH—CO—O)Pro-Phg-DTrp-Lys-Tyr(4-Bzl)-Phe]] (cyclo(F[Hyp]([CO-Ethylenediamine])[Phg]WKY(Bn)); configuration not given here)
ATPase, H+/K+ exchanging, α polypeptide expression level, AvgDiff (range) (0.1 mg/animal/14 day): 20
ATPase, Na+/K+ transporting, α 2 (+) polypeptide expression level, AvgDiff (range) (0.1 mg/animal/14 day): 184 (69 to 325)
ATPase, Na+/K+ transporting, β 3 polypeptide expression level, AvgDiff (range) (0.1 mg/animal/14 day): 610 (335 to 949)
BCL2-antagonist of cell death expression level, AvgDiff (range) (0.1 mg/animal/14 day): 69 (42 to 89)
BCL2-associated athanogene expression level, AvgDiff (range) (0.1 mg/animal/14 day): 318 (235 to 409)
Bax gamma expression level, AvgDiff (range) (0.1 mg/animal/14 day): 326 (221 to 448)
Cdk inhibitor 2C (p18, inhibits CDK4) expression level, AvgDiff (range) (0.1 mg/animal/14 day): 184 (140 to 229)
Cdk inhibitor 2D (p19, inhibits CDK4) expression level, AvgDiff (range) (0.1 mg/animal/14 day): 99 (83 to 118)
Cell division cycle 25B expression level, AvgDiff (range) (0.1 mg/animal/14 day): 162 (134 to 187)
Core-binding factor, runt domain, α subunit 2; translocated to, 1; cyclin D-related expression level, AvgDiff (range) (0.1 mg/animal/14 day): 491 (251 to 677)
Cyclin D3 expression level, AvgDiff (range) (0.1 mg/animal/14 day): 338 (202 to 446)
Cyclin F expression level, AvgDiff (range) (0.1 mg/animal/14 day): 74 (48 to 132)
Dual specificity phosphatase 8 expression level, AvgDiff (range) (0.1 mg/animal/14 day): 170 (67 to 238)
Forkhead box O3A expression level, AvgDiff (range) (0.1 mg/animal/14 day): 257 (186 to 324)
GLUR 2, precursor expression level, AvgDiff (range) (0.1 mg/animal/14 day): 59 (20 to 177)
GR expression level, AvgDiff (range) (0.1 mg/animal/14 day): 109 (51 to 215)
IGF-2 expression level, AvgDiff (range) (0.1 mg/animal/14 day): 70 (20 to 150)
IGFBP, acid labile subunit expression level, AvgDiff (range) (0.1 mg/animal/14 day): 83 (20 to 110)
IP-4-phosphatase, type 1, isoform b expression level, AvgDiff (range) (0.1 mg/animal/14 day): 177 (107 to 232)
K+ channel, subfamily K, member 3 (TASK) expression level, AvgDiff (range) (0.1 mg/animal/14 day): 26 (20 to 43)
K+ voltage-gated channel, Shab-related subfamily, member 1 expression level, AvgDiff (range) (0.1 mg/animal/14 day): 22 (20 to 31)
MAPKKK5 expression level, AvgDiff (range) (0.1 mg/animal/14 day): 278 (221 to 351)
Neuroblastoma-amplified protein expression level, AvgDiff (range) (0.1 mg/animal/14 day): 237 (201 to 258)
PI transfer protein, β expression level, AvgDiff (range) (0.1 mg/animal/14 day): 42 (34 to 50)
PI-3-kinase, catalytic, α polypeptide expression level, AvgDiff (range) (0.1 mg/animal/14 day): 21 (20 to 24)
PI-3-kinase, catalytic, δ polypeptide expression level, AvgDiff (range) (0.1 mg/animal/14 day): 34 (20 to 67)
PKC inhibitor expression level, AvgDiff (range) (0.1 mg/animal/14 day): 3,333 (2,339 to 3,878) and 3,332 (2,339 to 3,878)
PLC, γ 1 (formerly subtype 148) expression level, AvgDiff (range) (0.1 mg/animal/14 day): 40 (20 to 63)
PP 1, regulatory (inhibitor) subunit 5 expression level, AvgDiff (range) (0.1 mg/animal/14 day): 75 (60 to 90)
PTP, receptor type, T expression level, AvgDiff (range) (0.1 mg/animal/14 day): 101 (48 to 129)
Phosphatase and tensin homolog (mutated in multiple advanced cancers 1) expression level, AvgDiff (range) (0.1 mg/animal/14 day): 36 (20 to 63)
Programmed cell death 6 expression level, AvgDiff (range) (0.1 mg/animal/14 day): 635 (513 to 747)
Putative Ca++ transporting ATPase expression level, AvgDiff (range) (0.1 mg/animal/14 day): 101 (84 to 112)
RAB 5C, member RAS oncogene family expression level, AvgDiff (range) (0.1 mg/animal/14 day): 162 (109 to 212)
Rab geranylgeranyltransferase, α subunit expression level, AvgDiff (range) (0.1 mg/animal/14 day): 104 (70 to 172)
Rab geranylgeranyltransferase, βsubunit expression level, AvgDiff (range) (0.1 mg/animal/14 day): 284 (246 to 374)
S-phase response (cyclin-related) expression level, AvgDiff (range) (0.1 mg/animal/14 day): 129 (111 to 148)
SHB adaptor protein (a Src homology 2 protein) expression level, AvgDiff (range) (0.1 mg/animal/14 day): 38 (20 to 55)
SSTR3 expression level, AvgDiff (range) (0.1 mg/animal/14 day): 57 (20 to 90)
ANP (atrial natriuretic peptide precursor B) transcript fold change [1]: ↑ x2
ATP(GTP)-binding protein transcript fold change [1]: protein ↑ x1.5
ATPase, Ca++ transporting cardiac muscle, slow twitch 2 transcript fold change [1]: ↑ x1.5
ATPase, Na+/K+ transporting, α 2(+) polypeptide transcript fold change [1]: polypeptide ↑ x2.5
ATPase, Na+/K+ transporting, β 3 polypeptide transcript fold change [1]: polypeptide ↑ x2.5
Adrenomedullin transcript fold change [1]: Adrenomedullin ↑ x2.5
BCL2-antagonist of cell death transcript fold change [1]: cell death ↑ x2
BCL2-associated athanogene transcript fold change [1]: athanogene ↑ x2
BCL2/adenovirus E1B 19 kD-interacting protein 3 transcript fold change [1]: 3 ↑ x1.5
Bax γ transcript fold change [1]: Bax γ ↑ x1.5
Brain cannabinoid receptor 1 transcript fold change [1]: receptor 1 ↑ x2
Butyrate response factor 2 (EGF-response factor 2) transcript fold change [1]: factor 2) ↑ x3
CC chemokines STCP-1 transcript fold change [1]: STCP-1 ↑ x1.5
Calcium/calmodulin-dependent protein kinase I transcript fold change [1]: kinase I ↑ x2.5
Cdki2C (p18, inhibits CDK4) transcript fold change [1]: CDK4) ↑ x2
Cdki2D (p19, inhibits CDK4) transcript fold change [1]: CDK4) ↑ x1.5
Cell division cycle 25B transcript fold change [1]: ↑ x5
Core-binding factor, runt domain, α subunit 2; translocated to, 1; cyclin D-related transcript fold change [1]: cyclin D-related ↑ x3
Cyclin D3 transcript fold change [1]: Cyclin D3 ↑ x2.5
Forkhead box H1 transcript fold change [1]: Forkhead box H1↑ x2
G protein-coupled receptor, family C, group 5, member B transcript fold change [1]: group 5, member B ↑ x2
G-protein coupled receptor 9 transcript fold change [1]: receptor 9 ↑ x2.5
GABA-B R 1, isoform a precursor transcript fold change [1]: ↑ x1.5
